Structures are written as SMILES.

The first series concerns HIV-1. The experiment in a line: NCI in vitro anti-HIV drug screening test (protection of T4 lymphocytes from HIV cytolysis, XTT readout). Format: cell-based. Conditions: T4 lymphocytes (CEM cell line) infected with HIV-1, 6 days, XTT formazan; numerical EC50/IC50/TI only in FIGS. 1-4. As to the method:
The procedure used in the NCI's test for agents active against HIV is designed to detect agents acting at any stage of the virus reproductive cycle. The assay basically involves the killing of T4 lymphocytes by HIV. Small amounts of HIV are added to cells, and two cycles of virus reproduction are necessary to obtain the required cell killing. Agents that interact with virions, cells, or virus gene-products to interfere with vital activities will protect cells from cytolysis. All tests are done with at least one positive (e.g., AZT-treated) control done at the same time under identical conditions. The procedure is as follows:
Candidate agent was dissolved in dimethyl sulfoxide then diluted 1:100 in cell culture medium before preparing serial half-log10 dilutions. […]
Individual wells were analyzed spectrophotometrically to quantitate formazan production, and in addition were viewed microscopically for detection of viable cells and confirmation of protective activity. […]
The figures display a plot of the log10 of the sample's concentrations (as μg/mL or M) against the measured test values expressed as a percentage of the uninfected, untreated control values. […] The percent protection has been calculated from the data and is presented on the left side of the graph. […]
Background: Tetrazolium dyes change colour on reduction, which living cells bring about.
As to `C[C@H]1Cn2c(nc3c(C4OCCO4)cccc32)-c2c(cccc2[N+](=O)[O-])O1`, the “activity against HIV” value is “confirmed active”.

Test system in a further series: not given
Experiment: not given
Conditions: not given
As a reminder, the melting point is the temperature of the solid-liquid transition. The compound `Cc1ccc(S(=O)(=O)OCC2Cn3c(nc4c(C)cccc43)-c3cccc(Cl)c3O2)cc1` (centres unmarked) displayed a melting point of 168 to 169 °C. In the case of `OCC1Cn2c(nc3ccccc32)-c2ccccc2O1` (centres unmarked), the melting point fell in the range of 142 to 143.5 °C. For the compound `Cc1ccc(S(=O)(=O)OCC2Cn3c(nc4ccccc43)-c3ccccc3O2)cc1` (centres unmarked), the melting point lay in the range of 165.5 to 166.5 °C.

In turn, `CC(C)(C)C1Cn2c(nc3c(C4OCCO4)cccc32)-c2ccccc2O1` (centres unmarked) gave a melting point of 200 to 201 °C. Still for that read-out and setting: the figure for `Cc1cccc2c1nc1n2CC(CO)Oc2c(Cl)cccc2-1` (centres unmarked) is 186.5 to 188 °C; for `CC(C)(C)C1Cn2c(nc3ccccc32)-c2ccccc2O1` (centres unmarked) it is 149 to 150 °C; for `Cc1cccc2c1nc1n2CC(C(C)(C)C)Oc2c(Cl)cccc2-1` (centres unmarked) it is 191 to 192 °C.
